Source: the CheMixHub viscosity set

Assay: xn = mol fraction of the nth substance listed

Nc1ccccc1Cl + Cc1ccc(Cl)cc1
viscosity [mPa·s], 101 kPa
Conditions | x1 = 0.1012 | x1 = 0.2102 | x1 = 0.3125 | x1 = 0.4056 | x1 = 0.5142 | x1 = 0.6125 | x1 = 0.6952 | x1 = 0.7859 | x1 = 0.8859
303.15 K | 0.9617 | 1.175 | 1.405 | 1.644 | 1.963 | 2.287 | 2.586 | 2.936 | 3.344
308.15 K | 0.8921 | 1.097 | 1.318 | 1.543 | 1.833 | 2.12 | 2.377 | 2.674 | 3.014
313.15 K | 0.8377 | 1.031 | 1.238 | 1.446 | 1.711 | 1.968 | 2.195 | 2.451 | 2.737
318.15 K | 0.7836 | 0.9716 | 1.17 | 1.368 | 1.616 | 1.852 | 2.054 | 2.275 | 2.511

O=S1(=O)CCCC1 + ClCCCl
viscosity [mPa·s], 100 kPa
Conditions | x1 = 0.0168 | x1 = 0.1062 | x1 = 0.2045 | x1 = 0.3091 | x1 = 0.4077 | x1 = 0.5125 | x1 = 0.6483 | x1 = 0.8007 | x1 = 0.9708
303.15 K | 0.8741 | 1.693 | 2.594 | 3.559 | 4.475 | 5.452 | 6.725 | 8.157 | 9.753
308.15 K | 0.8027 | 1.515 | 2.303 | 3.149 | 3.949 | 4.803 | 5.911 | 7.157 | 8.551
313.15 K | 0.7524 | 1.384 | 2.086 | 2.837 | 3.545 | 4.3 | 5.28 | 6.382 | 7.617

Nc1ccccc1Cl + COCCO
303.15 K, 101 kPa
Conditions | viscosity [mPa·s]
x1 = 0.093 | 2.184
x1 = 0.157 | 2.388
x1 = 0.2242 | 2.597
x1 = 0.3168 | 2.811
x1 = 0.415 | 3.024
x1 = 0.5093 | 3.223
x1 = 0.6253 | 3.414
x1 = 0.7713 | 3.581
x1 = 0.8914 | 3.711

Cc1ccccc1N + NCCO
viscosity [mPa·s], 100 kPa
Conditions | x1 = 0.0997 | x1 = 0.1749 | x1 = 0.2629 | x1 = 0.3629 | x1 = 0.4797 | x1 = 0.5707 | x1 = 0.6849 | x1 = 0.7826 | x1 = 0.8935
303.15 K | 13.32 | 12.49 | 11.51 | 10.39 | 9.093 | 8.076 | 6.799 | 5.704 | 4.459
308.15 K | 11.11 | 10.42 | 9.62 | 8.704 | 7.633 | 6.796 | 5.745 | 4.842 | 3.815
313.15 K | 9.063 | 8.521 | 7.884 | 7.159 | 6.309 | 5.646 | 4.812 | 4.095 | 3.278
318.15 K | 7.032 | 6.632 | 6.161 | 5.624 | 4.994 | 4.503 | 3.884 | 3.352 | 2.744
